According to ChEMBL document CHEMBL1201862, “PubChem BioAssay data set” (2004):
Activity calls are given as the source filed them.

Tests used:
[1] = tested on: HEK293; experiment: cells; details: Homo sapiens
[2] = tested on: HEK293; experiment: cells; details: Homo sapiens; remark: listed apart in the source
[3] = target: T1, SUMO-activating enzyme (Homo sapiens, UniProt Q9UBT2); experiment: blockers of UBC9-mediated SUMO conjugation – biochemical, AlphaScreen, SUMOylation inhibitor project, confirmation (AID 2018); assay type: functional
T1 sequence (Q9UBE0 whole entry): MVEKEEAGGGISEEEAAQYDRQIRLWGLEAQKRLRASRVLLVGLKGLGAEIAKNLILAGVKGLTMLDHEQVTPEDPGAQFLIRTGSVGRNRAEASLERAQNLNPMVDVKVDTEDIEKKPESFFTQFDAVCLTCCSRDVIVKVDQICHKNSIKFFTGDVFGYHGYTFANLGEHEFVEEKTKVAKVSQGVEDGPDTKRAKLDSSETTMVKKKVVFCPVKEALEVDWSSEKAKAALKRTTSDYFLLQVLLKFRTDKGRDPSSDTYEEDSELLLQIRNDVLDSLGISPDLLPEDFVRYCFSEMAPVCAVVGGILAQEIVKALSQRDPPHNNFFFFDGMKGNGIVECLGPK
T1 sequence (Q9UBT2 whole entry): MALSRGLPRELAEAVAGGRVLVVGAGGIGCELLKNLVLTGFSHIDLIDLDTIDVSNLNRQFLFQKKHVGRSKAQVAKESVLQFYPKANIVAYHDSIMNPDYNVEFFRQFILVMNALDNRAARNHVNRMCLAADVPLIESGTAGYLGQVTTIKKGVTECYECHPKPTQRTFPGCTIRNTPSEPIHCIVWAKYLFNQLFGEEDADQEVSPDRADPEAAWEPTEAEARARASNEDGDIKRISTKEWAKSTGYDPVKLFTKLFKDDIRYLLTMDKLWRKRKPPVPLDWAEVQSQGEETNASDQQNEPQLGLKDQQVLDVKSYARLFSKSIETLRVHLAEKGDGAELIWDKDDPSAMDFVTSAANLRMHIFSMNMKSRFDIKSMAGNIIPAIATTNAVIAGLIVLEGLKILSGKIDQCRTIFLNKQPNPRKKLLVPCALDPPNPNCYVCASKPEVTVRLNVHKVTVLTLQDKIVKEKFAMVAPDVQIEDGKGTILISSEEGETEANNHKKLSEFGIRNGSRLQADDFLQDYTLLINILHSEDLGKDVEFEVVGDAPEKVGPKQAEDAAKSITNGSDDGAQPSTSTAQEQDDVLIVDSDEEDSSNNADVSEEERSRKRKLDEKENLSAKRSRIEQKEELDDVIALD

[4] = target: T2, Microphthalmia-associated transcription factor (Homo sapiens, UniProt O75030); experiment: reducers of TRPM1 reporter luminescence, concentration series – cell-based, SK-MEL-5, cherry-picked, set 3, MITF inhibitor project, dose response (AID 493073); assay type: functional;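 note: SK-MEL-5 melanoma cells with luciferase driven by the MITF target TRPM1 promoter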
T2 sequence (O75030 whole entry): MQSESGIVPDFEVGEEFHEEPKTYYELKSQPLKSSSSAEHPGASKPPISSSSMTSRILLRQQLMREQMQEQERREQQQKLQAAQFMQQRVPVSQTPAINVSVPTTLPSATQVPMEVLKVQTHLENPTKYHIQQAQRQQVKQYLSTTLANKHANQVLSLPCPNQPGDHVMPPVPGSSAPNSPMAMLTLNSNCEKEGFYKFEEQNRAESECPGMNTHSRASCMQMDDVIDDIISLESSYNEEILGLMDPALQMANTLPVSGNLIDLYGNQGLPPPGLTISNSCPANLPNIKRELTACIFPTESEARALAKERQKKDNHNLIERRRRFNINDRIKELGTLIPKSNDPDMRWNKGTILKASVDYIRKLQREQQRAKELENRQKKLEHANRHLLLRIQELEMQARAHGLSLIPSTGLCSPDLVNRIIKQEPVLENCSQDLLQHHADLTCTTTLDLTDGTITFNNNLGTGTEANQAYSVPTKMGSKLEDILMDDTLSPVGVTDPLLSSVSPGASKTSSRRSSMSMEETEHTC

[5] = target: DNA (cytosine-5)-methyltransferase 1 (Homo sapiens, UniProt P26358); experiment: inhibition of DNA methylation by DNMT1 – biochemical, fluorescent molecular beacon, confirmation (AID 602386); assay type: functional
Sequence of DNA (cytosine-5)-methyltransferase 1 (P26358 whole entry): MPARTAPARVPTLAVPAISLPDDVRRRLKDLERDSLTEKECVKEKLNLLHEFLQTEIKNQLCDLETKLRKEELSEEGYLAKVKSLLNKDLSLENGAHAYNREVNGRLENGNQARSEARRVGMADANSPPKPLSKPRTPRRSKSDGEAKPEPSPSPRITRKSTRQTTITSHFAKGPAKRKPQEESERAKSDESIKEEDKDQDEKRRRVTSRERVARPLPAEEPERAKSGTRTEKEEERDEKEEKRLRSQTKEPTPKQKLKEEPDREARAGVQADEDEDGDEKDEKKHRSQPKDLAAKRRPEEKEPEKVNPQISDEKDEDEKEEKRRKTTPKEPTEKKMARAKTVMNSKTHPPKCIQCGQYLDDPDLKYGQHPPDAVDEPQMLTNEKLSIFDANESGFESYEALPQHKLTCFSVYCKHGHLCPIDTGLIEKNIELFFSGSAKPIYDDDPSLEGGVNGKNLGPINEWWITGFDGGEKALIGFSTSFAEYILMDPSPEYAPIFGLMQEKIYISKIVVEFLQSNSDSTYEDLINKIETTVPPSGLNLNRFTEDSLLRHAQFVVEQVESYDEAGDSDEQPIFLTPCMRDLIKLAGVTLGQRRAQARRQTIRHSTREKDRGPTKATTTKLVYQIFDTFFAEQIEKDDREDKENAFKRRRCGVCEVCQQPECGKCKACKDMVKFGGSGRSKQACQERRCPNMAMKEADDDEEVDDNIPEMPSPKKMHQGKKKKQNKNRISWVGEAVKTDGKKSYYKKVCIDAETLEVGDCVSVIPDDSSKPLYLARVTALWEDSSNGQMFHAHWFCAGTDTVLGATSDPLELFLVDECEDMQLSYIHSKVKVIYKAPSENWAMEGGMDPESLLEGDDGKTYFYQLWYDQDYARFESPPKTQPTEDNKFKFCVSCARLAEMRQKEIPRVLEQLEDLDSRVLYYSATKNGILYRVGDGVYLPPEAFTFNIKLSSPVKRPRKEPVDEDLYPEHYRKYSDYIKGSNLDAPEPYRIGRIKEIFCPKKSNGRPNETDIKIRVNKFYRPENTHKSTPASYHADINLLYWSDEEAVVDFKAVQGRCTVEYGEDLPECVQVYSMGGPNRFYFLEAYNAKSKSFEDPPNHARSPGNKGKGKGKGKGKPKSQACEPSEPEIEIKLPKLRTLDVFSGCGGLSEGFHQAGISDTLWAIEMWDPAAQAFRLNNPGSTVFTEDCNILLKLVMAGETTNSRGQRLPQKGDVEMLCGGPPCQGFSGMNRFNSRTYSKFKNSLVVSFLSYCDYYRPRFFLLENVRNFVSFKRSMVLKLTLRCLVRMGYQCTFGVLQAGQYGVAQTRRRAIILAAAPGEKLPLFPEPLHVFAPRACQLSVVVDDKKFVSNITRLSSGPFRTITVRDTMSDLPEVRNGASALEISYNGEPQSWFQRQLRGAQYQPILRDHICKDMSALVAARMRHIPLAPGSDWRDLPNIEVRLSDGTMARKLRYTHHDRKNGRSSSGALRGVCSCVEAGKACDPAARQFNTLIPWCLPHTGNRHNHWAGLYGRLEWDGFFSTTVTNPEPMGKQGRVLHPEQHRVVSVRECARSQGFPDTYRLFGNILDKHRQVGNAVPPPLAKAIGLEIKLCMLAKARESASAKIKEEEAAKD

[6] = target: Induced myeloid leukemia cell differentiation protein Mcl-1 (Homo sapiens, UniProt Q07820); assay type: functional
Sequence of Induced myeloid leukemia cell differentiation protein Mcl-1 (Q07820 whole entry): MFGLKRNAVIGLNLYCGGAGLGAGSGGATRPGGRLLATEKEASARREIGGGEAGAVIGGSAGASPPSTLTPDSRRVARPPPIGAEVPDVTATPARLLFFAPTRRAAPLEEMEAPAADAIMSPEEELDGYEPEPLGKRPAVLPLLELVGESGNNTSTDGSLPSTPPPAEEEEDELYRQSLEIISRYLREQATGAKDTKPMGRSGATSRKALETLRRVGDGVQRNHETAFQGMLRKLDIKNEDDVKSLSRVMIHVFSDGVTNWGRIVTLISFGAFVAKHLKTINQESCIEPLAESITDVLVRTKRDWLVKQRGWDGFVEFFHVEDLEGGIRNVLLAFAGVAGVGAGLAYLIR

[7] = target: T3, Heat shock factor protein 1 (Mus musculus, UniProt P38532); experiment: enhancement of HSF1-driven luciferase signal – cell-based, NIH3T3, luminescence, dose retest, confirmation (AID 435004); assay type: functional;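 note: stress induced by proteasome inhibitor MG132 added 30 min after compound; luciferase reporter driven by HSF1 response element in NIH3T3 cells; actives raise luminescence as potentiators of the MG132 stress response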
T3 sequence (P38532 whole entry): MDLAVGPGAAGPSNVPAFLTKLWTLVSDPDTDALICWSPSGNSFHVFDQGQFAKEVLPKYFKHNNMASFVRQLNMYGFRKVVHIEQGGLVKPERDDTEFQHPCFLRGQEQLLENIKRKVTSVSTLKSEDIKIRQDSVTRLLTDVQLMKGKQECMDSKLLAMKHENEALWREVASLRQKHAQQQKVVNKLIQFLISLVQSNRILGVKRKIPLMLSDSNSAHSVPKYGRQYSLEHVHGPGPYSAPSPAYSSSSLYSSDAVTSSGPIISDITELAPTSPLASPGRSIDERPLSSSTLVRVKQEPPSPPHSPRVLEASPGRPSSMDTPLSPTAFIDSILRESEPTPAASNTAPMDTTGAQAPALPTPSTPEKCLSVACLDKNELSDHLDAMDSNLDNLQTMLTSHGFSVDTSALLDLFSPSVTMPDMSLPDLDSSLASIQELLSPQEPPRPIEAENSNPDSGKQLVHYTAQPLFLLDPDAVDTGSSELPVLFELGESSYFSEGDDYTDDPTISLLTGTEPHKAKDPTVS

[8] = target: Large T antigen (Simian virus 40, UniProt P03070); assay type: functional, Betapolyomavirus macacae;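 note: Confirmatory-stage PubChem screen for compounds that inhibit SV40 T antigen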
[9] = tested on: Vero; experiment: cells; assay type: functional; details: Chlorocebus sabaeus
[10] = target: T1, SUMO-activating enzyme; experiment: blockers of SAE1/SAE2–UBC9 SUMO transfer – biochemical, HTRF, uHTS, primary screen (AID 2006); assay type: protein-complex assay
[11] = tested on: Vero; experiment: viability of Vero cells under compound – cytotoxicity control for flavivirus capping enzyme inhibitors (AID 588742); assay type: functional; details: Chlorocebus sabaeus
[12] = target: Genome polyprotein (dengue virus type 2, UniProt P29990); experiment: flavivirus cap methylation enzyme inhibition – biochemical, confirmation dose response, primary screen (AID 588689); assay type: functional
Sequence of Genome polyprotein (P29990 2492-3391 limits assumed): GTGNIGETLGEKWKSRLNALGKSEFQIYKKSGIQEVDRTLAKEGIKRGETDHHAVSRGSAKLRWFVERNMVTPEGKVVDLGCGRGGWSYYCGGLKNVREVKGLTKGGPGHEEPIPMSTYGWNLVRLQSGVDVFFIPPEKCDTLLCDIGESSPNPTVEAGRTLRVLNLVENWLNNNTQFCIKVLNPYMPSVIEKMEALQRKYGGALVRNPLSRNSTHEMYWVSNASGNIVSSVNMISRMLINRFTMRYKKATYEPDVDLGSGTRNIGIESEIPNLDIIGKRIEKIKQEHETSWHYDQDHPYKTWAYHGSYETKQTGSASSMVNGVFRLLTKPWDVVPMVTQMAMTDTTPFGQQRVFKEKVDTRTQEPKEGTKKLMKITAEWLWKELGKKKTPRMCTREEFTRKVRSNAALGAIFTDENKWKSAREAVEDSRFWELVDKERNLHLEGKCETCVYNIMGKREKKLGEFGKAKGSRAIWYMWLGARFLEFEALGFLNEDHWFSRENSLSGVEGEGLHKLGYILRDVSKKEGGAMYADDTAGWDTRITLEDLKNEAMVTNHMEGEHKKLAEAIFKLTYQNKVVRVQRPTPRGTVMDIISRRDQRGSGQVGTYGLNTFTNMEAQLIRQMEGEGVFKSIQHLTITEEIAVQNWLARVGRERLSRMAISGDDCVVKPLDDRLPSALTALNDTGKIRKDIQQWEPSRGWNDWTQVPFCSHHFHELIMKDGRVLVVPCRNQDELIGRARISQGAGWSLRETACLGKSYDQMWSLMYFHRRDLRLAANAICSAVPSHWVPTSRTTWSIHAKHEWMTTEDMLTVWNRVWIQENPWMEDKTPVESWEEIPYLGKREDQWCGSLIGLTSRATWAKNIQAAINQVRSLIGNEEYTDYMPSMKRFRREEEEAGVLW

[13] = target: UDP-galactopyranose mutase (Mycobacterium tuberculosis, UniProt P9WIQ1); experiment: Inhibitors of Mycobacterium tuberculosis UDP-galactopyranose mutase (UGM) enzyme Measured in Biochemical System Using Plate Reader - 2105-02_Inhibitor_Dose_CherryPick_Activity. [Related pubchem assays (depositor defined):AID504439]
Sequence of UDP-galactopyranose mutase (P9WIQ1 whole entry): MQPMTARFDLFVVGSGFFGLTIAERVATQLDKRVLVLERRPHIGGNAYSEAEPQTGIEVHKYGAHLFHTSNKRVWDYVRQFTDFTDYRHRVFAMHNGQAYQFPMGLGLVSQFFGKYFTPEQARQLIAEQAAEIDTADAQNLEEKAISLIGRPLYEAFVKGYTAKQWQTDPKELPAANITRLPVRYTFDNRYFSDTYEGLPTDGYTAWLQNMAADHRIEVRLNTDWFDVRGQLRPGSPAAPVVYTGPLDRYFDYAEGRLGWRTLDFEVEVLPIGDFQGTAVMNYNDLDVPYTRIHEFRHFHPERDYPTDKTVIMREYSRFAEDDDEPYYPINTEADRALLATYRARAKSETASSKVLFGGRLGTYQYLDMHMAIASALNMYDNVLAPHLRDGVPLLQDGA

[14] = target: T4, Mannose-6-phosphate isomerase (Homo sapiens, UniProt P34949); experiment: MPI enzyme activity inhibition – biochemical, fluorescence intensity, coupled assay, primary screen (AID 1209)
T4 sequence (P34949 whole entry): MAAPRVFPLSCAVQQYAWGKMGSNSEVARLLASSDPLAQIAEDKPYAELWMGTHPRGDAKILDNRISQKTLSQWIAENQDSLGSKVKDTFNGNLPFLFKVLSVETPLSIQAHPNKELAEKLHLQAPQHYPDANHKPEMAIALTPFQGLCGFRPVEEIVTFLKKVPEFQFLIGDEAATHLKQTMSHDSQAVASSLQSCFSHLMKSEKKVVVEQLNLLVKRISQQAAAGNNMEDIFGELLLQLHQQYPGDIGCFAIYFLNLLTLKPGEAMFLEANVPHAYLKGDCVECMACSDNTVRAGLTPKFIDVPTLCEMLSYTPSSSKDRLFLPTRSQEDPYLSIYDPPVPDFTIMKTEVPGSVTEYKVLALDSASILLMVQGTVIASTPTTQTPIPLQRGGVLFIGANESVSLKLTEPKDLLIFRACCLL

[15] = target: T4, Mannose-6-phosphate isomerase; experiment: phosphomannose isomerase inhibition – biochemical, fluorescence intensity, confirmation (AID 1535)
[16] = target: Phosphomannomutase 2 (Homo sapiens, UniProt O15305); experiment: Counter screen SAR assay for PMM2 inhibitors via a fluorescence intensity assay. [Related pubchem assays (depositor defined):AID1545, AID1574]
Sequence of Phosphomannomutase 2 (O15305 whole entry): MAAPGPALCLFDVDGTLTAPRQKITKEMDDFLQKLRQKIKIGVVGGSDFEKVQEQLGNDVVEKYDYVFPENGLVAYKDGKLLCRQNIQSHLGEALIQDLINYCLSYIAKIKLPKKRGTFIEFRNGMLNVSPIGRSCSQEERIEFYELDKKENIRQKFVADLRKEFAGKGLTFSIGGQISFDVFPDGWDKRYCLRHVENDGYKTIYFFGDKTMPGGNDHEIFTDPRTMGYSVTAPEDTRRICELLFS

[17] = toxicity toward cultured mammalian cells – cell-based, plate reader, cherry-pick samples, cytotoxicity control, dose response (AID 504397); assay type: functional
[18] = target: Peroxisome proliferator-activated receptor gamma/Nuclear receptor coactivator 1 (Homo sapiens, UniProt P37231); experiment: (§1) TR-FRET dose response biochemical High Throughput Screening assay for agonists of the steroid receptor coactivator 1 (SRC-1) recruitment by the peroxisome proliferator-activated receptor gamma (PPAR gamma): non-selective agonists. [Related pubchem assays (depositor defined):AID1300, AID1808, AID504735, AID631]; assay type: protein assay
[19] = target: Mitogen-activated protein kinase 10 (Homo sapiens, UniProt P53779); experiment: Dose response biochemical screening assay for inhibitors of c-Jun N-Terminal Kinase 3 (JNK3). [Related pubchem assays: 746 ]
Sequence of Mitogen-activated protein kinase 10 (P53779 whole entry): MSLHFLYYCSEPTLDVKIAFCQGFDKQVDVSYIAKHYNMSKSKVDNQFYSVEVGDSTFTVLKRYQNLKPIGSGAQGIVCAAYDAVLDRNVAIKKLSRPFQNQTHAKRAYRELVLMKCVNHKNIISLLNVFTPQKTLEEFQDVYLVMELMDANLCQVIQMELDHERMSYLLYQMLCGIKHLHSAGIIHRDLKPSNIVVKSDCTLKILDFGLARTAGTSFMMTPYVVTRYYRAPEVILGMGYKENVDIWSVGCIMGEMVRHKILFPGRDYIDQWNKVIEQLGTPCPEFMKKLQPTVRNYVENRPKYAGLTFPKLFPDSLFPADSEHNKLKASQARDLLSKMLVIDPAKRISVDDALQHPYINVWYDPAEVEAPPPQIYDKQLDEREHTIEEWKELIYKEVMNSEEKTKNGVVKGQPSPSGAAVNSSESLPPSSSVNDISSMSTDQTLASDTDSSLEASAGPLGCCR

[20] = target: Peroxisome proliferator-activated receptor gamma/Nuclear receptor coactivator 3 (Homo sapiens, UniProt P37231); experiment: as §1, with “3 (SRC-3)” for “1 (SRC-1)”, “assays: 1301 (Confirmation screen.), 1048 (Primary screen.)]” for “assays (depositor defined):AID1300, AID1808, AID504735, AID631]”; assay type: functional
[21] = target: Peroxisome proliferator-activated receptor gamma/Nuclear receptor coactivator 2 (Homo sapiens, UniProt P37231); experiment: TR-FRET dose response biochemical High Throughput Screening assay for agonists of the steroid receptor coactivator 2 (SRC-2) recruitment by the peroxisome proliferator-activated receptor gamma (PPAR gamma): non-selective agonists. [Related pubchem assays: 1297, 1032 ]; assay type: functional

CN(C)C(=S)N=c1ssc(=S)n1Cc1ccccc1
EC50 [1]: > 59.7 µM (inactive)
EC50 [2]: > 59.7 µM (inactive)

O=C1NC(=S)NC(=O)C1=Cc1cccn1-c1ccc(O)cc1
IC50 [3]: 7.4 µM (active)
AC50 [4]: 11.4 µM (active)
IC50 [5]: 4.82 µM (active)
IC50 [6]: 4.45 µM (active)
EC50 [7]: 10.6 µM (active)
IC50 [8]: 30.3 µM (active)
CC50 [9]: 23 µM (active)
IC50 [10]: 21.9 µM (active)
CC50 [11]: 34.8 µM (active)
IC50 [12]: 34.2 µM (active)

COc1ccccc1N1C(=O)C2C(C(=O)c3ccccc3)=NN(c3ccc(Br)cc3)C2C1=O (stereo unspecified)
AC50 [13]: 265 µM (active)

Cc1cc2n(n1)SC(Nc1ccc(F)c(Cl)c1)N2 (stereo unspecified)
IC50 [14]: > 50 µM (not active)
IC50 [15]: > 50 µM (inactive)
IC50 [16]: > 100 µM (inactive)

Cc1oc(-c2cccs2)nc1CSCC(=O)N1CCC2(CC1)OCCO2
AC50 [17]: 256 µM (active)

CCOC(=O)CCC(NC(=O)c1ccc(NCN2C(=O)c3ccccc3C2=O)cc1)C(=O)OCC (stereo unspecified)
EC50 [18]: > 79.4 µM (inactive)
IC50 [19]: 13.1 µM (not active)
EC50 [20]: > 79.4 µM (not active)
EC50 [21]: > 79.4 µM (not active)
